Drawing on patent US7226944B2, “Taxanes having a C7 carbonate substituent” (FSU Research Foundation, Inc., priority 2000, dated 2007), this text covers IC50 for 13 molecules.

For this assay, the system named is HCT116. As to the kind of experiment: In vitro cytotoxicity measured by the cell colony formation assay. To be noted: HCT116 cells; drug concentration producing 50% inhibition of colony formation; 72 h with drug at 37° C., colonies counted after 7 days; read-out: IN VITRO ID 50 (nm) HCT116. It counts as cell-based. Here is the method: Four hundred cells (HCT116) were plated in 60 mm Petri dishes containing 2.7 mL of medium (modified McCoy's 5a medium containing 10% fetal bovine serum and 100 units/mL penicillin and 100 µg/mL streptomycin). The cells were incubated in a CO2 incubator at 37° C. for 5 h for attachment to the bottom of Petri dishes. The compounds identified in Example 2 were made up fresh in medium at ten times the final concentration, and then 0.3 mL of this stock solution was added to the 2.7 mL of medium in the dish. The cells were then incubated with drugs for 72 h at 37° C. At the end of incubation the drug-containing media were decanted, the dishes were rinsed with 4 mL of Hank's Balance Salt Solution (HBSS), 5 mL of fresh medium was added, and the dishes were returned to the incubator for colony formation. The cell colonies were counted using a colony counter after incubation for 7 days.

As for `COC(=O)O[C@H]1C[C@H]2OC[C@@]2(OC(C)=O)C2[C@H](OC(=O)c3ccccc3)[C@]3(O)C[C@H](OC(=O)[C@H](O)[C@@H](NC(=O)OC(C)C)c4cccs4)C(C)=C([C@@H](O)C(=O)[C@@]21C)C3(C)C` (stereo partly shown) [Compound 4144], the IC50 was less than 1 nM.

Turning to `CCOC(=O)O[C@H]1C[C@H]2OC[C@@]2(OC(C)=O)C2[C@H](OC(=O)c3ccccc3)[C@]3(O)C[C@H](OC(=O)[C@H](O)[C@@H](NC(=O)OC(C)C)c4cccs4)C(C)=C([C@@H](O)C(=O)[C@@]21C)C3(C)C` (stereo partly shown) [Compound 4151], the IC50 is less than 1 nM.

Turning to `CCOC(=O)O[C@H]1C[C@H]2OC[C@@]2(OC(C)=O)C2[C@H](OC(=O)c3ccccc3)[C@]3(O)C[C@H](OC(=O)[C@H](O)[C@@H](NC(=O)C=C(C)C)c4cccs4)C(C)=C([C@@H](O)C(=O)[C@@]21C)C3(C)C` (stereo partly shown) [Compound 4164], the IC50 is less than 1 nM.

Regarding `CCOC(=O)O[C@H]1C[C@H]2OC[C@@]2(OC(C)=O)C2[C@H](OC(=O)c3ccccc3)[C@]3(O)C[C@H](OC(=O)[C@H](O)[C@@H](NC(=O)c4ccccc4)c4cccs4)C(C)=C([C@@H](O)C(=O)[C@@]21C)C3(C)C` (stereo partly shown) [Compound 4188], the IC50 is less than 10 nM.

Turning to `COC(=O)O[C@H]1C[C@H]2OC[C@@]2(OC(C)=O)C2[C@H](OC(=O)c3ccccc3)[C@]3(O)C[C@H](OC(=O)[C@H](O)[C@@H](NC(=O)c4ccco4)c4cccs4)C(C)=C([C@@H](O)C(=O)[C@@]21C)C3(C)C` (stereo partly shown) [Compound 4222], the IC50 is less than 1 nM.

Turning to `CCOC(=O)O[C@H]1C[C@H]2OC[C@@]2(OC(C)=O)C2[C@H](OC(=O)c3ccccc3)[C@]3(O)C[C@H](OC(=O)[C@H](O)[C@@H](NC(=O)OC(C)(C)C)c4cccs4)C(C)=C([C@@H](O)C(=O)[C@@]21C)C3(C)C` (stereo partly shown) [Compound 4234], the IC50 is less than 1 nM.

With `COC(=O)O[C@H]1C[C@H]2OC[C@@]2(OC(C)=O)C2[C@H](OC(=O)c3ccccc3)[C@]3(O)C[C@H](OC(=O)[C@H](O)[C@@H](NC(=O)C=C(C)C)c4cccs4)C(C)=C([C@@H](O)C(=O)[C@@]21C)C3(C)C` (stereo partly shown) [Compound 4244], the IC50 was less than 1 nM.

For `CCOC(=O)O[C@H]1C[C@H]2OC[C@@]2(OC(C)=O)C2[C@H](OC(=O)c3ccccc3)[C@]3(O)C[C@H](OC(=O)[C@H](O)[C@@H](NC(=O)c4ccco4)c4cccs4)C(C)=C([C@@H](O)C(=O)[C@@]21C)C3(C)C` (stereo partly shown) [Compound 4304], the IC50 is less than 10 nM.

With `COC(=O)O[C@H]1C[C@H]2OC[C@@]2(OC(C)=O)C2[C@H](OC(=O)c3ccccc3)[C@]3(O)C[C@H](OC(=O)[C@H](O)[C@@H](NC(=O)OCC(C)C)c4cccs4)C(C)=C([C@@H](O)C(=O)[C@@]21C)C3(C)C` (stereo partly shown) [Compound 4355], the IC50 was less than 1 nM.

On to `CCOC(=O)O[C@H]1C[C@H]2OC[C@@]2(OC(C)=O)C2[C@H](OC(=O)c3ccccc3)[C@]3(O)C[C@H](OC(=O)[C@H](O)[C@@H](NC(=O)OCC(C)C)c4cccs4)C(C)=C([C@@H](O)C(=O)[C@@]21C)C3(C)C` (stereo partly shown) [Compound 4363], for which the IC50 is less than 10 nM.

Regarding `COC(=O)O[C@H]1C[C@H]2OC[C@@]2(OC(C)=O)C2[C@H](OC(=O)c3ccccc3)[C@]3(O)C[C@H](OC(=O)[C@H](O)[C@@H](NC(=O)c4ccccc4)c4cccs4)C(C)=C([C@@H](O)C(=O)[C@@]21C)C3(C)C` (stereo partly shown) [Compound 4411], the IC50 is less than 1 nM.

`COC(=O)O[C@H]1C[C@H]2OC[C@@]2(OC(C)=O)C2[C@H](OC(=O)c3ccccc3)[C@]3(O)C[C@H](OC(=O)[C@H](O)[C@@H](NC(=O)c4cccs4)c4cccs4)C(C)=C([C@@H](O)C(=O)[C@@]21C)C3(C)C` (stereo partly shown) [Compound 4424]: the IC50 is less than 1 nM.

Turning to `COC(=O)O[C@H]1C[C@H]2OC[C@@]2(OC(C)=O)C2[C@H](OC(=O)c3ccccc3)[C@]3(O)C[C@H](OC(=O)[C@H](O)[C@@H](NC(=O)OC(C)(C)C)c4ccoc4)C(C)=C([C@@H](O)C(=O)[C@@]21C)C3(C)C` (stereo partly shown) [Compound 4434], the IC50 is less than 1 nM.
